From paper PMC10584170, “Machine learning-based phenotypic imaging to characterise the targetable biology of Plasmodium falciparum male gametocytes for the development of transmission-blocking antimalarials” (PLOS Pathogens, 2023)

Columns and labels:
[1] = system: P. falciparum female gametocytes; assay: P. falciparum Dual Gamete Formation Assay (PfDGFA), female readout (Pfs25-positive female gametes); type: cell-based, Plasmodium falciparum NF54; conditions: for % inhibition female (individual replicates) R1: replicate R1; for % inhibition female (individual replicates) R3: replicate R3; for % inhibition female (individual replicates) R4: replicate R4; for Average inhibition female (%): average of replicates
Outline: (§1)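 First, day-14 P. falciparum NF54 gametocytes receive compound for 24 h at 37°C in 1% O2/3% CO2. Next, ookinete medium with Cy3 anti-Pfs25 triggers gametogenesis at 28°C and male exflagellation is imaged. Finally, after 24 h in the dark, Cy3-labelled females are imaged.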

[2] = system: P. falciparum male gametocytes; assay: P. falciparum Dual Gamete Formation Assay (PfDGFA), male readout (exflagellation); type: cell-based, Plasmodium falciparum NF54; conditions: for % inhibition male (individual replicates) R1: replicate R1; for % inhibition male (individual replicates) R3: replicate R3; for % inhibition male (individual replicates) R4: replicate R4; for Average inhibition male (%): average of replicates
Outline: as §1

[3] = PfDGFA at 2µM, 24h preincubation with gametocytes prior to induction of gametogenesis
[4] = PfDGFA at 2µM, 24h preincubation
[5] = 2µM, 24h preincubation with gametocytes prior to induction of gametogenesis
[6] = 2µM, 24h preincubation, number of replicates with >50% inhibition in the female readout
[7] = 2µM, 24h preincubation, number of replicates with >50% inhibition in the male readout
[8] = PfDGFA at 2µM, 24h preincubation with gametocytes

For CCc1c(CCNCCCCCCNCCc2ccc(Br)cc2)ccc(OC)c1OC.Cl [TCMDC-132045], the “% inhibition female (individual replicates) R1” value [1, 3] was -8.2%, the “% inhibition female (individual replicates) R3” value [1, 3] was -48.0% and the “% inhibition female (individual replicates) R4” value [1, 3] was -18.3%. For the same compound, the “Average inhibition female (%)” value [1, 4] was -21.6%, the “% inhibition male (individual replicates) R1” value [2, 3] was -2.0% and the “% inhibition male (individual replicates) R3” value [2, 3] was 7.0%. The “% inhibition male (individual replicates) R4” value [2, 3] was 22.9% and the “Average inhibition male (%)” value [2, 4] was 10.8%.
For CCc1c(CCNCCCCCCNCCc2ccc(OC)c(OC)c2CC)ccc(OC)c1OC.Cl [TCMDC-132047], the “Average inhibition female (%)” value [1, 5] was 17.9%, the “% inhibition female (individual replicates) R1” value [1, 5] was 11.5% and the “% inhibition female (individual replicates) R3” value [1, 5] was 7.6%. The “% inhibition female (individual replicates) R4” value [1, 5] was 17.6%, the HitlevelF [1, 6] was 0 and the “Average inhibition male (%)” value [2, 5] was 61.2%. For the same compound, the “% inhibition male (individual replicates) R1” value [2, 5] was 56.6%, the “% inhibition male (individual replicates) R3” value [2, 5] was 45.7% and the “% inhibition male (individual replicates) R4” value [2, 5] was 80.2%. The HitlevelM [2, 7] was 3.
CCc1c(CCNCCCCCCNC(C)Cc2ccc3c(c2CC)OCO3)ccc(OC)c1OC.Cl (stereo not drawn) [TCMDC-132052] was tested, and the “Average inhibition female (%)” value [1, 8] was 26.4%, the “% inhibition female (individual replicates) R1” value [1, 8] was 34.8% and the “% inhibition female (individual replicates) R3” value [1, 8] was 2.4%. The “% inhibition female (individual replicates) R4” value [1, 8] was 23.2%, the HitlevelF ([1]; number of replicates with >50% inhibition in the female readout, 2µM) was 0 and the “Average inhibition male (%)” value [2, 8] was 79.1%. For the same compound, the “% inhibition male (individual replicates) R1” value [2, 8] was 84.5%, the “% inhibition male (individual replicates) R3” value [2, 8] was 62.9% and the “% inhibition male (individual replicates) R4” value [2, 8] was 90.9%. For the same compound, the HitlevelM ([2]; number of replicates with >50% inhibition in the male readout, 2µM) was 4.
For CCc1c(CCNCCCCCCNCCc2ccc([N+](=O)[O-])cc2)ccc(OC)c1OC.Cl [TCMDC-132066], the “Average inhibition female (%)” value [1, 5] was 24.7%, the “% inhibition female (individual replicates) R1” value [1, 5] was 23.1% and the “% inhibition female (individual replicates) R3” value [1, 5] was 5.5%. For the same compound, the “% inhibition female (individual replicates) R4” value [1, 5] was 16.3%, the HitlevelF [1, 6] was 1 and the “Average inhibition male (%)” value [2, 5] was 38.6%. The “% inhibition male (individual replicates) R1” value [2, 5] was 42.7%, the “% inhibition male (individual replicates) R3” value [2, 5] was 1.6% and the “% inhibition male (individual replicates) R4” value [2, 5] was 56.2%. For the same compound, the HitlevelM [2, 7] was 2.
In the case of CCc1c(CCNCCCCCCNCc2ccc3c(c2CC)OCO3)ccc(OC)c1OC.Cl [TCMDC-132068], the “Average inhibition female (%)” value [1, 5] is reported as 13.2%, the “% inhibition female (individual replicates) R1” value [1, 5] is reported as 18.0% and the “% inhibition female (individual replicates) R3” value [1, 5] is reported as -2.7%. The “% inhibition female (individual replicates) R4” value [1, 5] was 25.3%, the HitlevelF ([1]; 2µM, 24h preincubation, hits selected on >50% inhibition in the female readout across replicates) was 0 and the “Average inhibition male (%)” value [2, 5] was 39.4%. The “% inhibition male (individual replicates) R1” value [2, 5] was 42.2%, the “% inhibition male (individual replicates) R3” value [2, 5] was 19.5% and the “% inhibition male (individual replicates) R4” value [2, 5] was 56.9%. For the same compound, the HitlevelM ([2]; 2µM, 24h preincubation, hits selected on >50% inhibition in the male readout across replicates) was 1 and the Activity ([2]; PfDGFA at 2µM, 24h preincubation, hit = >50% inhibition in male or female readout in at least 3 replicates, 0 = no class assigned) was 0.
With COc1cc2c(c(Cl)c1OC)CCN(C(=O)C(F)(F)F)CC2c1ccccc1 (stereo not drawn) [TCMDC-132071] the “% inhibition female (individual replicates) R1” value [1, 3] was 4.5%, the “% inhibition female (individual replicates) R3” value [1, 3] was -4.3% and the “% inhibition female (individual replicates) R4” value [1, 3] was 10.0%. The “Average inhibition female (%)” value [1, 4] was 2.1%, the “% inhibition male (individual replicates) R1” value [2, 3] was 5.3% and the “% inhibition male (individual replicates) R3” value [2, 3] was 19.8%. The “% inhibition male (individual replicates) R4” value [2, 3] was -8.3% and the “Average inhibition male (%)” value [2, 4] was 3.7%.
